Test results taken from patent US10532084B2, “Chondrocyte extracellular matrix-derived peptide” (EYEBIO KOREA, priority 2016, dated 2020).

Assays:
VEGF, ICAM and MCP-1 = assay: Quantitative real-time RT-PCR of retina and choroid, laser CNV model; assay type: in vivo, C57BL/6 mice; settings: mouse, 14 days after laser, 5 μg
Experimental: In order to confirm the inhibitory effect of hydroxy proline-GQDGLAGPK on neovascularization-related gene expression, RNA was extracted using RNeasy Mini kit (Qiagen) in mixture of retina and choroid of extracted mice eyeballs, and cDNA was synthesized by using oligo(dT) primer and reverse transcriptase. PCR products were amplified using the specific primer set (COSMOGENETECH, Korea) shown in Table 1 and SYBR Green PCR 2X PreMix (Enzynomics) and for the PCR conditions, the samples were incubated at 95° C. for 10 minutes, and 40 PCR cycles at 95° C. for 15 seconds, 60° C. for 30 seconds and 72° C. for 15 seconds, were performed. Relative quantification was calculated using 2-(DDCT) method [Livak and Schmittgen, 2001; DDCT=(CT, target-CT, actin) control group (CT, target-CT, actin) control group].
After 14 days of laser irradiation in mouse, RNA was extracted from retina and choroid to analyze the gene expression by real-time RT-PCR.

[1] = system: VEGF, VEGFR-1 (Flt-1), VEGR-2 (Flk-1) and Angiopoietin 2; settings: mouse, 14 days after laser, 5 μg
Experimental: C57BL/6 mice were purchased from Orient Bio and the animal experiments was carried out in accordance with the guidelines approved by the University of Inje (No, 2013-053) and ARVO regarding animal use for eye and vision studies. 6-week-old C57BL/6 mice were treated with diode green laser (532 nm, 150 mW, 0.1 sec, […], photocoagulator) to damage the retinal optic nerve area. Immediately after laser irradiation, CP1, CPII and positive control group Avastin were dissolved in PBS and administered […] each per a day in the eyeball for 5 days. The above experiment for each experiment group was performed using both eyes of five mice each.

corneal epithelial cell = assay: Corneal epithelial cell detachment (H&E), dry eye model; assay type: in vivo, NOD.B10.H2b mice
Experimental: (§1) NOD.B10.H2^b mice were purchased from Jackson Laboratory (Bar Harbor, Me., USA). Animal experiments were carried out in accordance with the guidelines approved by the University of Inje (No.; 2014-029) and ARVO regarding animal use for eye and vision research. NOD.B10.H2^b mice at 12-16 weeks old were exposed to 40-50% ambient humidity and ventilation using a fan for 18 hours a day as dry stress and subcutaneously injected with 0.5 mg/0.2 mL muscarinic receptor blocker. In addition, scopolamine hydrobromide (Sigma-Aldrich, St. Louis, Mo.) was injected alternately to the […] hips four times a day for 10 days at 9 am, […].
(§2) After 10 days of ocular dry stress, the scopolamine injection was stopped, and switched to a normal humidity and temperature environment and the dry stress was removed, 10 mg/ml Hyp-[…] and collagen were dissolved in normal saline to administer 5 μL each 5 times a day for 10 days, and normal saline and 0.1% HA were administered to the eyeball 5 times a day for 10 days. Three mice were used in each of the six experimental groups using both eyes of the mice and all experiments were repeated.

[2] = system: conjunctival goblet cells; assay: Distribution of conjunctival goblet cells (PAS staining), dry eye model; assay type: in vivo, NOD.B10.H2b mice
Experimental: as §1, §2
The distribution of conjunctival goblet cells according to eye drop in dry eye mice was observed.

[3] = system: TNF-α, ICAM-1, VCAM-1, MMP-2 and MMP-9; settings: 10 days of treatment after removal of dry stress
Experimental: as §1, §2

hydroxy proline-GQDGLAGPK [Hyp-GQDGLAGPK]
MCP-1 gene expression in retina and choroid (VEGF, ICAM and MCP-1; laser-treated group increased about 10 times): significantly decreased
VEGF gene expression in retina and choroid (VEGF, ICAM and MCP-1; laser-treated group increased about 55 times): decreased to the level similar to that of the laser-untreated group
ICAM gene expression in retina and choroid (VEGF, ICAM and MCP-1; laser-treated group increased about 300 times): significantly decreased
protein expression of VEGF, VEGFR-1, -2 and Angiopoietin 2 compared with Avastin [1]: almost similar to that of Avastin
protein expression of VEGF, VEGFR-1, VEGFR-2 and Angiopoietin 2 in retina and choroid ([1]; immunoblotting): markedly decreased
reduction of corneal epithelial cell detachment vs CsA group (corneal epithelial cell; 10 days of treatment): 75%
reduction of corneal epithelial cell detachment vs DQS group (corneal epithelial cell; 10 days of treatment): 60%
reduction of corneal epithelial cell detachment vs HA group (corneal epithelial cell; 10 days of treatment): 77.8%
reduction of corneal epithelial cell detachment vs collagen group (corneal epithelial cell; 10 days of treatment): 55.6%
reduction of corneal epithelial cell detachment vs dry stress (DS 10D) (corneal epithelial cell; 10 days of treatment): 83.3%
reduction of corneal epithelial cell detachment vs normal saline group (corneal epithelial cell; 10 days of treatment): 71.4%
corneal epithelial cell detachment (corneal epithelial cell; 10 days of treatment after removal of dry stress, DS 10D 2.29±0.57): 0.38±0.17 /0.1 mm^2
goblet cell recovery vs dry stress (DS 10D) ([2]; 10 days of treatment): 2.3 times
goblet cells relative to CsA group ([2]; 10 days of treatment): 1.2 times
goblet cells relative to DQS group ([2]; 10 days of treatment): 1.5 times
goblet cells relative to HA group ([2]; 10 days of treatment): 1.6 times
goblet cells relative to collagen group ([2]; 10 days of treatment): 1.3 times
goblet cells relative to normal saline group ([2]; 10 days of treatment): 2.6 times
distribution of goblet cells in the conjunctiva (in words) ([2]; 10 days of treatment after removal of dry stress): significantly increased
conjunctival goblet cells ([2]; 10 days of treatment after removal of dry stress, normal 14.38±0.44, DS 10D 6.02±0.29): 13.9±0.83 /0.1 mm^2
expression of inflammation-related factors in the lacrimal gland compared with CsA, DQS and HA treated mice [3]: significantly inhibited
expression of inflammation-related factors (TNF-α, ICAM-1, VCAM-1, MMP-2, MMP-9) in the lacrimal gland ([3]; immunostaining): markedly reduced
